Source: PubChem BioAssay AID1918933 (Molecular Pharmacology Branch, DTP, NCI, 2023)

Tested on: 186277-243-T-J2-PDC complex spheroid viability
Test: Anticancer human tumor 186277-243-T-J2-PDC patient-derived colon adenocarcinoma cell line growth inhibition
Settings: for IC50: curve of first compound; for viability, T/C: stronger effect = lower value; active = viability on the fitted dose curve at most 10% of control; inactive = the rest
Procedure, shortened: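 Multicellular complex spheroids of tumor cells with human endothelial cells (HUVEC) and mesenchymal stem cells; the LSD1 inhibitor iadademstat was combined with standard-of-care or investigational agents. Top concentration at or near clinical Cmax, half-log dilutions; final DMSO ≤0.25%.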
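Note: 7 day exposure to compounds.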
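Throughout, for viability, T/C: 100% = DMSO vehicle control viability.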

Nc1ccccc1NC(=O)c1ccc(CNC(=O)OCc2cccnc2)cc1 + NC1CC1c1ccc(-c2cccc(O)c2)cc1
570 nM: IC50 (second compound 0.316 µM)
585 nM: IC50 (second compound 1 µM)
563 nM: IC50 (second compound 3.16 µM)
active: viability, T/C (second compound 0.1 µM, first compound 3 µM) 1.51% | viability, T/C (second compound 0.316 µM, first compound 3 µM) 0.84% | viability, T/C (second compound 1 µM, first compound 3 µM) 0.9% | viability, T/C (second compound 3.16 µM, first compound 3 µM) 1.44% | viability, T/C (second compound 10 µM, first compound 3 µM) 1.02%
514 nM: IC50 (second compound 10 µM)
596 nM: IC50 (second compound 0.1 µM)
inactive: viability, T/C (second compound 0.1 µM, first compound 0.00949 µM) 93.8% | viability, T/C (second compound 0.1 µM, first compound 0.03 µM) 104% | viability, T/C (second compound 0.1 µM, first compound 0.0949 µM) 91.6% | viability, T/C (second compound 0.1 µM, first compound 0.3 µM) 98.6% | viability, T/C (second compound 0.1 µM, first compound 0.949 µM) 18.1% | viability, T/C (second compound 0.316 µM, first compound 0.00949 µM) 99.6% | viability, T/C (second compound 0.316 µM, first compound 0.03 µM) 99.6% | viability, T/C (second compound 0.316 µM, first compound 0.0949 µM) 108% | viability, T/C (second compound 0.316 µM, first compound 0.3 µM) 93.5% | viability, T/C (second compound 0.316 µM, first compound 0.949 µM) 15.4% | viability, T/C (second compound 1 µM, first compound 0.00949 µM) 98.8% | viability, T/C (second compound 1 µM, first compound 0.03 µM) 94.1% | viability, T/C (second compound 1 µM, first compound 0.0949 µM) 98.8% | viability, T/C (second compound 1 µM, first compound 0.3 µM) 94.7% | viability, T/C (second compound 1 µM, first compound 0.949 µM) 17.7% | viability, T/C (second compound 3.16 µM, first compound 0.00949 µM) 99.8% | viability, T/C (second compound 3.16 µM, first compound 0.03 µM) 110% | viability, T/C (second compound 3.16 µM, first compound 0.0949 µM) 109% | viability, T/C (second compound 3.16 µM, first compound 0.3 µM) 87.9% | viability, T/C (second compound 3.16 µM, first compound 0.949 µM) 18.5% | viability, T/C (second compound 10 µM, first compound 0.00949 µM) 96.2% | viability, T/C (second compound 10 µM, first compound 0.03 µM) 97.3% | viability, T/C (second compound 10 µM, first compound 0.0949 µM) 104% | viability, T/C (second compound 10 µM, first compound 0.3 µM) 83.3% | viability, T/C (second compound 10 µM, first compound 0.949 µM) 11.8%
